Earlier results as cited in patent US12161674B2, “CRISPR-CAS9 modified CD34+ human hematopoietic stem and progenitor cells and uses thereof” (Vertex Pharmaceuticals Incorporated, priority 2018, dated 2024).

System: CD34^+ cells
Conditions: plerixafor alone

c1cc(CN2CCCNCCNCCCNCC2)ccc1CN1CCCNCCNCCCNCC1 [plerixafor]
subjects with non-severe pain crisis (despite RBC transfusions in the preceding 2 months): 3 of 7 | median collection of CD34^+ cells after a single apheresis (subjects with severe SCD, range 5.1 to 20.0): 10.4×10^6 CD34^+ cells/kg
